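Dose response: 5 concentrations. Exposure: 48 h. Format: 96-well plates. Endpoint: linear interpolation; highest concentration if not reached. At the TGI there is no net growth.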
Tests used:
Assay in all cases: DTP human tumour cell line panel, 48 h
SF-295 CNS = test system: SF-295 CNS
UACC-62 melanoma = test system: UACC-62 melanoma
A549 NSCLC = test system: A549 NSCLC
K-562 leukemia = test system: K-562 leukemia
SR leukemia = test system: SR leukemia
HCT-15 colon = test system: HCT-15 colon
CCRF-CEM leukemia = test system: CCRF-CEM leukemia
MDA-MB-231 breast = test system: MDA-MB-231 breast
CAKI-1 renal = test system: CAKI-1 renal
UACC-257 melanoma = test system: UACC-257 melanoma
MALME-3M melanoma = test system: MALME-3M melanoma
NCI-H460 lung = test system: NCI-H460 lung
SNB-75 CNS = test system: SNB-75 CNS
PC-3 prostate = test system: PC-3 prostate
SNB-19 CNS = test system: SNB-19 CNS
SF-268 CNS = test system: SF-268 CNS
HS 578T breast = test system: HS 578T breast
UO-31 renal = test system: UO-31 renal
NCI-H226 lung = test system: NCI-H226 lung
HCC-2998 colon = test system: HCC-2998 colon

Structure (SMILES)	TGI (SF-295 CNS)	TGI (UACC-62 melanoma)	TGI (A549 NSCLC)	TGI (K-562 leukemia)	TGI (SR leukemia)	TGI (HCT-15 colon)	TGI (CCRF-CEM leukemia)	TGI (MDA-MB-231 breast)	TGI (CAKI-1 renal)	TGI (UACC-257 melanoma)	TGI (MALME-3M melanoma)	TGI (NCI-H460 lung)	TGI (SNB-75 CNS)	TGI (PC-3 prostate)	TGI (SNB-19 CNS)	TGI (SF-268 CNS)	TGI (HS 578T breast)	TGI (UO-31 renal)	TGI (NCI-H226 lung)	TGI (HCC-2998 colon)
Cc1c(CCN2CCOCC2)c(N2CCOCC2)n2c(nc3ccccc32)c1C#N	> 10 µM	> 10 µM	> 10 µM	> 10 µM	> 10 µM	> 10 µM	> 10 µM	> 10 µM	> 10 µM	> 10 µM	> 10 µM	> 10 µM	> 10 µM	> 10 µM	> 10 µM	> 10 µM	> 10 µM	> 10 µM	> 10 µM	–
Oc1c(Cl)c(Cl)c(O)c(CCNc2ccc3ncccc3c2)c1Cl	24.1 µM	23.8 µM	47.3 µM	> 100 µM	28 µM	30 µM	–	–	25.4 µM	43.6 µM	35.3 µM	41.8 µM	33.4 µM	> 100 µM	32.3 µM	18.8 µM	13.1 µM	31.2 µM	–	28 µM
N#CC(C#N)=C/C=C(\Sc1c(Cl)c(Cl)nc(Cl)c1Cl)c1ccc(Cl)cc1	44.9 µM	30 µM	> 100 µM	> 100 µM	68.8 µM	30.1 µM	> 100 µM	60 µM	34.2 µM	37.2 µM	46.6 µM	> 100 µM	44.9 µM	> 100 µM	43 µM	54.1 µM	63.7 µM	> 100 µM	67.9 µM	–
CSC1=Nc2ccccc2-c2nc3ccccc3cc2C1	> 100 µM	> 100 µM	> 100 µM	> 100 µM	> 100 µM	> 100 µM	> 100 µM	> 100 µM	> 100 µM	> 100 µM	> 100 µM	> 100 µM	–	> 100 µM	> 100 µM	> 100 µM	> 100 µM	> 100 µM	> 100 µM	> 100 µM
O=S(=O)(c1ccccc1)C(c1ccc2ccccc2n1)S(=O)(=O)c1ccccc1	> 100 µM	–	> 100 µM	> 100 µM	> 100 µM	> 100 µM	–	> 100 µM	> 100 µM	> 100 µM	> 100 µM	> 100 µM	> 100 µM	> 100 µM	> 100 µM	> 100 µM	> 100 µM	> 100 µM	> 100 µM	> 100 µM
CCC(C(=O)C(=O)C(CC)P1(=O)OC(C)(C)CN1C(C)(C)C)P1(=O)OC(C)(C)CN1C(C)(C)C (stereo unspecified)	> 100 µM	> 100 µM	> 100 µM	> 100 µM	> 100 µM	> 100 µM	> 100 µM	> 100 µM	> 100 µM	> 100 µM	–	> 100 µM	> 100 µM	> 100 µM	> 100 µM	> 100 µM	> 100 µM	> 100 µM	> 100 µM	> 100 µM

From PubChem BioAssay (NCI)
